Structures are written as SMILES.

As usually defined, the IC50 is the concentration that gives 50% inhibition. Read a low IC50 as greater potency in that assay.

Experiment [1] has as its system A375 cells. Put plainly: A375 cell growth inhibition test (MTT assay). Format: cell-based, human. To be noted: 72 h. On the procedure: A375 Cell Growth Inhibition Test (MTT Assay)
(§1) II. Reagents and Consumable Materials
Culture medium: 90% DMEM+10% FBS (fetal calf serum); Pancreatin (0.25% (w/v) solution was formulated with PBS, 0.53 mM of EDTA was added in the formulation); PBS; 96-well culture plate.
(§2) 1. A plate (10 cm) of cells in logarithmic growth phase that were normally cultured was collected;
(§3) 2. The culture solution was sucked out. The plate was washed with 5 mL of PBS once or twice;
(§4) 3. PBS was sucked out. 1.5 mL of 0.25% pancreatin was added to the plate to infiltrate the cells for 1 min;
(§5) 4. The culture plate was placed in an incubator. Digestion was carried out for about 5 min at 37° C.;
5. 3 mL of complete culture solution was added to the culture plate to stop the digestion. The cells were carefully scoured with micropipette (1 ml) to give a uniform cell suspension. The suspension was implanted into a 96-well cell culture disc by 3000 cells/100 μL per well. The culture plate was incubated overnight under 5% CO2 at 37° C. In day 2, 100 μL of culture solution comprising a compound was added in each well. The plate was further incubated for 72 h under 5% CO2 at 37° C.;
(§6) 6. The culture solution was sucked out;
(§7) 7. 100 μL of serum-free culture solution containing 0.5 mg/mL MTT was added in each well. The plate was incubated for 3 h;
(§8) 8. The culture solution was carefully sucked out;
(§9) 9. 100 μL of DMSO was added in each well and vibrated to dissolve;
(§10) 10. OD values were determined at 490 nM.
(§11) IV. Results and Treatments
(§12) 1. Calculation of Relative Inhibition Ratio The inhibition ratio of a compound on cell growth=(PC−n)/(PC−NC)×100%
(§13) PC: OD values of cells after normal growth in control wells without a compound;
(§14) n: OD values of cells after growth in test wells with a compound;
(§15) NC: Background OD values of blank wells without a compound and cells.
A general note: Formazan colour is commonly taken as a measure of viable cells.

For experiment [2], the system named is A431 cells. The experiment in a line: A431 cell growth inhibition test (MTT assay). To be noted: 72 h. Format: cell-based, human. On the procedure: A431 Cell Growth Inhibition Test (MTT Assay)
as §1
Culture medium: 45% DMEM+45% F12+10% FBS (fetal calf serum); Pancreatin (0.25% (w/v) solution was formulated with PBS, 0.53 mM of EDTA was added in the formulation); PBS; 96-well culture plate.
as §2, §3, §4, §5
(§16) 5. 3 mL of complete culture solution was added to the culture plate to stop the digestion. The cells were carefully scoured with micropipette (1 mL) to give a uniform cell suspension. The suspension was implanted into a 96-well cell culture disc by 2500 cells/100 μL per well. The culture plate was incubated overnight under 5% CO2 at 37° C. In day 2, 100 μL of culture solution comprising a compound was added in each well. The plate was further incubated for 72 h under 5% CO2 at 37° C.;
as §6, §7, §8, §9, §10, §11, §12, §13, §14, §15

Experiment [3] deals with B16 cells. Put plainly: B16 cell growth inhibition test (MTT assay). Format: cell-based, mouse. To be noted: 72 h. On the procedure:
B16 Cell Growth Inhibition Test (MTT Assay)
as §1
(§17) Culture medium: 90% RPMI1640+10% FBS (fetal calf serum); Pancreatin (0.25% (w/v) solution was formulated with PBS, 0.53 mM of EDTA was added in the formulation); PBS; 96-well culture plate.
as §2, §3, §4
(§18) 4. The culture plate was placed in an incubator. Digestion was carried out for about 1 min at 37° C.;
as §16, §6
7. 100 μl of serum-free culture solution containing 0.5 mg/mL MTT was added in each well. The plate was incubated for 3 h;
as §8, §9, §10, §11, §12, §13, §14, §15

For experiment [4], the system named is 786-O cells. Put plainly: 786-O cell growth inhibition test (MTT assay). To be noted: 72 h. It is filed as cell-based, human. As to the method:
786-O Cell Growth Inhibition Test (MTT Assay)
as §1, §17, §2, §3, §4, §18
5. 3 mL of complete culture solution was added to the culture plate to stop the digestion. The cells were carefully scoured with micropipette (1 mL) to give a uniform cell suspension. The suspension was implanted into a 96-well cell culture disc by 2000 cells/100 μL per well. The culture plate was incubated overnight under 5% CO2 at 37° C. In day 2, 100 μL of culture solution comprising a compound was added in each well. The plate was further incubated for 72 h under 5% CO2 at 37° C.;
as §6, §7, §8, §9, §10, §11, §12, §13, §14, §15

The subject of experiment [5] is 22Rv1 cells. Put plainly: 22Rv1 cell growth inhibition test (SRB assay). It is filed as cell-based, human. The note with it: growth inhibition at 222 nM, 73 h. The procedure, abridged:
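Human prostate cancer 22Rv1 cells seeded at 7000 cells/well, incubated overnight, then exposed to compound for 73 h at 37° C, 5% CO2. TCA-fixed cells stained with SRB, dye dissolved in 10 mM Tris, OD read at 570 nm. Inhibition = (PC−n)/(PC−NC)×100% against untreated and cell-free blank wells.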
A general note: Sulforhodamine B stains cellular protein and so reports cell mass.

Regarding `COc1cccc2c1C(=O)c1c(O)c3c(c(O)c1C2=O)CC(O)(C(=O)COC(=O)CCC(=O)O)CC3OC1CC(n2cccc2)C(O)C(C)O1` (stereo not shown) [Compound A, 3′-pyrrolyldoxorubicin-14-oxo-succinic acid monoester, reference compound], the IC50 in experiment [1] was determined as 207 nM; in experiment [2], 68 nM; in experiment [3], 32 nM; in experiment [4], 180 nM.

With `COc1cccc2c1C(=O)c1c(O)c3c(c(O)c1C2=O)CC(O)(C(=O)COC(=O)CCC(=O)NCCOCCO)CC3OC1CC(n2cccc2)C(O)C(C)O1` (stereo not shown) [Example 62], the “Inhibition Ratio (%)” value in experiment [5] was determined as 57%. For the same molecule, the IC50 in experiment [3] is 3 nM; in experiment [4], 110 nM.

With `CC(=O)O.COc1cccc2c1C(=O)c1c(O)c3c(c(O)c1C2=O)CC(O)(C(=O)COC(=O)CCC(=O)NCCCN1CCN(C)CC1)CC3O[C@H]1C[C@H](n2cccc2)[C@H](O)[C@H](C)O1` (stereo partly drawn) [Example 81, 10-((3′-(pyrrol-1-yll)-2′,3′,6′-trideoxy-alphal-l-lyxo-hexylpyranyl)oxy)-7,8,9,10-tetrahydro-6,8,11-trihydroxy-13-oxo-14-(4-((3-(4-methylpiperazin-1-yl)propyl)amino)-4-oxo-butyrato)-1-methoxy-5,12-naphthalenedione acetate], the “Inhibition Ratio (%)” value in experiment [5] was found to be 56.5%. Further, the IC50 in experiment [1] was determined as 67 nM; in experiment [2], 42 nM.

These data come from US9670242B2, “Tetracyclic anthraquinone derivatives” (Tianjin Hemay Bio-Tech Co., Ltd, priority 2012, dated 2017).
